The values that follow come from publication PMC10301922, “Anti-Oxidant, Anti-Mutagenic Activity and Safety Evaluation of Antrocin” (Toxics, 2023).

Experiment [1] is described as follows: Trolox equivalent antioxidant capacity (TEAC). The following applies: 10 mg/mL antrocin. The protocol:
The following methodology describes the TEAC assay: Add 40 μL of sample to a 96-well plate and adjust the volume to 100 μL with ddH2O. The absorbance of the sample should be within the linear range of the standard curve (0–20 nmol/well). The detection limit of this assay is approximately 0.1 nmol (or 1 µM) Trolox per well. For Trolox Standard Curve Preparation, dissolve lyophilized Trolox Standard in 20 µL of pure DMSO, add 980 µL of distilled water and mix well to generate a 1 mM solution, then aliquot the solution and store it at −20 °C for stable storage for 4 months. Add 0, 4, 8, 12, 16, 20 µL of Trolox standard to each well. Adjust the total volume to 100 µL with ddH2O to obtain 0, 4, 8, 12, 16, 20 nmol of Trolox standards, respectively. For preparation of working solutions, dilute 1 part of Cu^2+ reagent with 49 parts of Assay Diluent, and dilute enough working solution for detection. Add 100 µL of Cu^2+ working solution to standard wells and sample wells. After capping the plate and reacting at room temperature for 1.5 h, measure the absorbance at 570 nm. Draw a Trolox standard curve by subtracting the 0 nmol standard reading from all standard curve readings. […]
• Sa = the amount of sample (in nmol) read from the standard curve. • Sv = the undiluted sample volume added to the well.

Experiment [2] deals with Salmonella typhimurium TA1535. Description: Antimutagenicity test, TA1535.
Where [3] appears, read: TA1535, with S9, mutagen 2-AA 25 μg/plate, antrocin 0.025 mg/plate.
[4] abbreviates: TA1535, with S9, mutagen 2-AA 25 μg/plate, antrocin 0.05 mg/plate.
The mark [5] stands for this setting: TA1535, with S9, mutagen 2-AA 25 μg/plate, antrocin […].
The mark [6] stands for this setting: TA1535, without S9, mutagen sodium azide 5 μg/plate, antrocin 0.025 mg/plate.
Setting [7] is: TA1535, without S9, mutagen sodium azide 5 μg/plate, antrocin 0.05 mg/plate.
The mark [8] stands for this setting: TA1535, without S9, mutagen sodium azide 5 μg/plate, antrocin […].

In the case of `C=C1CC[C@H]2C(C)(C)CCC[C@@]23C(=O)OC[C@@H]13` [Antrocin, (-)-Antrocin], the “Trolox Equivalent Antioxidant Capacity (mM Trolox Equivalents)” value in experiment [1] is on record as 0.508 ± 0.003 mM Trolox equivalents. The “Inhibition (%) of mutagenicity” value is given as 20.49% in experiment [2] (setting [3]); 33.25% in experiment [2] (setting [4]); 8.63% in experiment [2] (setting [5]); 16.74% in experiment [2] (setting [6]); 25.80% in experiment [2] (setting [7]); 4.40% in experiment [2] (setting [8]). The “Number of Revertant” value was found to be 217.3 ± 10.2 Colony/Plate in experiment [2] (setting [3]); 184.3 ± 3.8 Colony/Plate in experiment [2] (setting [4]); 248.0 ± 9.5 Colony/Plate in experiment [2] (setting [5]); 1095.0 ± 28.0 Colony/Plate in experiment [2] (setting [6]); 977.0 ± 18.1 Colony/Plate in experiment [2] (setting [7]); 1255.7 ± 47.7 Colony/Plate in experiment [2] (setting [8]).
